Test results from ChEMBL document CHEMBL5113440, “Optimization of clofibrate with O-desmethyl anetholtrithione lead to a novel hypolipidemia compound with hepatoprotective effect” (Bioorg Med Chem Lett, 2022).
Active and inactive are the calls of the source.

Key:
Mus musculus [1] = assay: Hypolipidemic activity in Triton-WR-1339 induced hyperlipidemic KM mouse model assessed as reduction in plasma TG level administered intragastrically via gavage for 7 days; assay type: functional, organism-based; details: dose 0.029-0.267 mmol/Kg, route ig, time 7.0 day, DDE = dose-dependent effect
Mus musculus [2] = assay: Hypolipidemic activity in Triton-WR-1339 induced hyperlipidemic KM mouse model assessed as reduction in plasma TC level administered intragastrically via gavage for 7 days; assay type: functional, organism-based; details: dose 0.029-0.267 mmol/Kg, route ig, time 7.0 day, DDE = dose-dependent effect
[3] = Toxicity in KM mouse assessed as reduction in body weight at 1.65 mmol/Kg, IG administered via gavage measured for 1 month; details: in vivo, po, 730 h, time 1 months
[4] = Hepatotoxicity in KM mouse assessed as effect on liver weight at 1.65 mmol/Kg, IG administered via gavage measured for 1 month; assay type: toxicity, tissue-based; details: in vivo, po, 730 h, time 1 months
[5] = Hepatotoxicity in KM mouse assessed as reduction in liver coefficient at 1.65 mmol/Kg, IG administered via gavage measured for 1 month; assay type: toxicity, tissue-based; details: in vivo, po, 730 h, time 1 months
[6] = Hepatotoxicity in KM mouse assessed as reduction in plasma AST level at 1.65 mmol/Kg, IG administered via gavage measured for 1 month by automated biochemical analyzer; assay type: toxicity; details: in vivo, po, 730 h, time 1 months
[7] = Hepatotoxicity in KM mouse assessed as reduction in plasma ALT level at 1.65 mmol/Kg, IG administered via gavage measured for 1 month by automated biochemical analyzer; assay type: toxicity; details: in vivo, po, 730 h, time 1 months
[8] = Hepatotoxicity in KM mouse assessed as reduction in plasma ALP level at 1.65 mmol/Kg, IG administered via gavage measured for 1 month by automated biochemical analyzer; assay type: toxicity; details: in vivo, po, 730 h, time 1 months
[9] = Hepatotoxicity in KM mouse assessed as reduction in total bilirubin level in plasma at 1.65 mmol/Kg, IG administered via gavage measured for 1 month by automated biochemical analyzer; assay type: toxicity; details: po, 730 h, time 1 months
Mus musculus [10] = assay: Antioxidant activity in KM mouse assessed as increase in SOD level in plasma at 1.65 mmol/Kg, IG administered via gavage measured for 1 month; assay type: functional, organism-based; details: time 1.0 months
Mus musculus [11] = assay: Antioxidant activity in KM mouse assessed as increase in CAT level in plasma at 1.65 mmol/Kg, IG administered via gavage measured for 1 month; assay type: functional, organism-based; details: time 1.0 months
Mus musculus [12] = assay: Antioxidant activity in KM mouse assessed as increase in GSH level in plasma at 1.65 mmol/Kg, IG administered via gavage measured for 1 month; assay type: functional, organism-based; details: time 1.0 months
Mus musculus [13] = assay: Antioxidant activity in KM mouse assessed as reduction in MDA level in plasma at 1.65 mmol/Kg, IG administered via gavage measured for 1 month; assay type: functional, organism-based; details: time 1.0 months
Mus musculus [14] = assay: Antiinflammatory activity in KM mouse assessed as downregulation of TNF-alpha expression in liver tissue at 1.65 mmol/Kg, IG administered via gavage measured for 1 month by Western blot analysis; assay type: functional, organism-based; details: time 1.0 months
Mus musculus [15] = assay: Antiinflammatory activity in KM mouse assessed as downregulation of IL-6 expression in liver tissue at 1.65 mmol/Kg, IG administered via gavage measured for 1 month by Western blot analysis; assay type: functional, organism-based; details: time 1.0 months
[16] = Hepatotoxicity in KM mouse assessed as infiltration of inflammatory cells at 1.65 mmol/Kg, IG administered via gavage by H and E staining based analysis; assay type: toxicity; details: in vivo, po
[17] = Hepatotoxicity in KM mouse assessed as nuclear degeneration at 1.65 mmol/Kg, IG administered via gavage by H and E staining based analysis; assay type: toxicity; details: in vivo, po
[18] = Hepatotoxicity in KM mouse assessed as appearance of loose cytoplasm at 1.65 mmol/Kg, IG administered via gavage by H and E staining based analysis; assay type: toxicity; details: in vivo, po
Mus musculus [19] = assay: Hepatoprotective activity in KM mouse assessed as improvement in hepatocyte injury at 1.65 mmol/Kg, IG administered via gavage by H and E staining based analysis; assay type: functional, organism-based
Mus musculus [20] = assay: Upregulation of Nrf2 protein expression in liver of KM mouse at 1.65 mmol/Kg, IG administered via gavage measured after 1 month by Western blot analysis; assay type: functional; details: time 1.0 months
Mus musculus [21] = assay: Upregulation of HO-1 protein expression in liver of KM mouse at 1.65 mmol/Kg, IG administered via gavage measured after 1 month by Western blot analysis; assay type: functional; details: time 1.0 months
Mus musculus [22] = assay: Downregulation of p-NF-kappaB p65 protein expression in liver of KM mouse at 1.65 mmol/Kg, IG administered via gavage measured after 1 month by Western blot analysis; assay type: functional; details: time 1.0 months
Mus musculus [23] = assay: Induction of oxidative stress in KM mouse assessed as reduction in SOD level in plasma at 1.65 mmol/Kg, IG administered via gavage measured for 1 month; assay type: functional, organism-based; details: time 1.0 months
Mus musculus [24] = assay: Induction of oxidative stress in KM mouse assessed as reduction in CAT level in plasma at 1.65 mmol/Kg, IG administered via gavage measured for 1 month; assay type: functional, organism-based; details: time 1.0 months
Mus musculus [25] = assay: Induction of oxidative stress in KM mouse assessed as reduction in GSH level in plasma at 1.65 mmol/Kg, IG administered via gavage measured for 1 month; assay type: functional, organism-based; details: time 1.0 months
Mus musculus [26] = assay: Induction of oxidative stress in KM mouse assessed as increase in MDA level in plasma at 1.65 mmol/Kg, IG administered via gavage measured for 1 month; assay type: functional, organism-based; details: time 1.0 months
Mus musculus [27] = assay: Induction of inflammation in KM mouse assessed as upregulation of TNF-alpha expression in liver tissue at 1.65 mmol/Kg, IG administered via gavage measured for 1 month by Western blot analysis; assay type: functional; details: time 1.0 months
Mus musculus [28] = assay: Induction of inflammation in KM mouse assessed as upregulation of IL-6 expression in liver tissue at 1.65 mmol/Kg, IG administered via gavage measured for 1 month by Western blot analysis; assay type: functional; details: time 1.0 months
[29] = Hepatotoxicity in KM mouse assessed as large areas of hepatocytes swelling at 1.65 mmol/Kg, IG administered via gavage by H and E staining based analysis; assay type: toxicity; details: in vivo, po
[30] = Hepatotoxicity in KM mouse assessed as blurred edge dissolution at 1.65 mmol/Kg, IG administered via gavage by H and E staining based analysis; assay type: toxicity; details: in vivo, po
Mus musculus [31] = assay: Upregulation of p-NF-kappaB p65 protein expression in liver of KM mouse at 1.65 mmol/Kg, IG administered via gavage measured after 1 month by Western blot analysis; assay type: functional; details: time 1.0 months

Measured: Activity

CC(C)(Oc1ccc(Cl)cc1)C(=O)Oc1ccc(-c2cc(=S)ss2)cc1
active: Mus musculus [1] Dde | Mus musculus [2] Dde | Mus musculus [10] | Mus musculus [11] | Mus musculus [12] | Mus musculus [13] | Mus musculus [14] | Mus musculus [15] | Mus musculus [19] | Mus musculus [20] | Mus musculus [21] | Mus musculus [22]
Non-Toxic: [3] | [4] | [5] | [6] | [7] | [8] | [9] | [16] | [17] | [18]

CCOC(=O)C(C)(C)Oc1ccc(Cl)cc1 [CLOFIBRATE]
Toxic: [4] | [5] | [6] | [7] | [8] | [9] | [29] | [16] | [17] | [30] | [18]
Non-Toxic: [3]
active: Mus musculus [23] | Mus musculus [24] | Mus musculus [25] | Mus musculus [26] | Mus musculus [27] | Mus musculus [28] | Mus musculus [31]
